Test results: patent US8796289B2 (AbbVie Inc., priority 2011, dated 2014)

Biological target: GST-tagged-Wee1 kinase (Homo sapiens, UniProt P30291)
Assay: Wee1 time-resolved fluorescence equilibrium binding assay (displacement of Oregon Green-labeled ATP-competitive kinase probe)
Method: Wee1 kinase was assayed using a time-resolved fluorescence equilibrium binding assay monitoring displacement of a rapidly reversible Oregon Green-labeled ATP-competitive kinase probe (N-(2-(2-(2-(4-(4-(5-chloro-4-(2-(1-hydroxycyclobutyl)thiazol-5-yl)-1H-pyrrolo[2,3-b]pyridin-2-yl)phenyl)piperazin-1-yl)ethoxy)ethoxy)ethyl)-2′,7′-difluoro-3′,6′-dihydroxy-3-oxo-3H-spiro[isobenzofuran-1,9′-xanthene]-5-carboxamide) by competitive Wee1 inhibitors.

Sequence of GST-tagged-Wee1 kinase (P30291 whole entry): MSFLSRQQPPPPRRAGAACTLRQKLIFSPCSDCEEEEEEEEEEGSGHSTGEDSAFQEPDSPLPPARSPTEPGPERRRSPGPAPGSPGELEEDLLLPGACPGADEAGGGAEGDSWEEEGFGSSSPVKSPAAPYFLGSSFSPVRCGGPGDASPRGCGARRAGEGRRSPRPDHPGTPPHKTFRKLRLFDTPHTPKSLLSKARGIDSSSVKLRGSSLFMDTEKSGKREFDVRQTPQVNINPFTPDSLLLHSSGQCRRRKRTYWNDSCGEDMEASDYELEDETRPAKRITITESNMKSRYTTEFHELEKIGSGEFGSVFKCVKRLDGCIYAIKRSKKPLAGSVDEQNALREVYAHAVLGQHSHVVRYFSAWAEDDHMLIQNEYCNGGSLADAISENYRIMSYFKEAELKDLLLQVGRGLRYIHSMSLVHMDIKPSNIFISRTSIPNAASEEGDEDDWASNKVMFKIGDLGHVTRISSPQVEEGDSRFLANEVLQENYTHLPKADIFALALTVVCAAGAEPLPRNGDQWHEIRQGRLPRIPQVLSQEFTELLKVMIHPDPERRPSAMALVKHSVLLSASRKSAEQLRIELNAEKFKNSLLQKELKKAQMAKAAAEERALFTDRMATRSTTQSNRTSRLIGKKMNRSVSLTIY

Compound	Ki
COc1ccccc1-n1nc(-c2ccccc2)c2nc(Nc3ccc(N4CCN(C)CC4)cc3)ncc2c1=O [Example 30, 6-(2-methoxyphenyl)-2-{[4-(4-methylpiperazin-1-yl)phenyl]amino}-8-phenylpyrimido[4,5-d]pyridazin-5(6H)-one]	1 nM
CN1CCN(c2ccc(Nc3ncc4c(=O)n(-c5ccccc5C(F)(F)F)nc(-c5ccccc5)c4n3)cc2)CC1 [Example 31, 2-{[4-(4-methylpiperazin-1-yl)phenyl]amino}-8-phenyl-6-[2-(trifluoromethyl)phenyl]pyrimido[4,5-d]pyridazin-5(6H)-one]	0.8 nM
CN1CCN(c2ccc(Nc3ncc4c(=O)n(-c5ccccc5)nc(-c5ccco5)c4n3)cc2)CC1 [Example 34, 8-(2-furyl)-2-{[4-(4-methylpiperazin-1-yl)phenyl]amino}-6-phenylpyrimido[4,5-d]pyridazin-5(6H)-one]	4 nM
CN1CCN(c2ccc(Nc3ncc4c(=O)n(-c5ccccc5)nc(-c5ccccc5F)c4n3)cc2)CC1 [Example 37, 8-(2-fluorophenyl)-2-{[4-(4-methylpiperazin-1-yl)phenyl]amino}-6-phenylpyrimido[4,5-d]pyridazin-5(6H)-one]	18 nM
CN1CCN(c2ccc(Nc3ncc4c(=O)n(-c5ccccc5Cl)nc(-c5ccc(Cl)cc5Cl)c4n3)cc2)CC1 [Example 38, 6-(2-chlorophenyl)-8-(2,4-dichlorophenyl)-2-{[4-(4-methylpiperazin-1-yl)phenyl]amino}pyrimido[4,5-d]pyridazin-5(6H)-one]	24 nM
CN1CCN(c2ccc(Nc3ncc4c(=O)n(-c5ccccc5C(F)(F)F)nc(-c5ccc(Cl)cc5Cl)c4n3)cc2)CC1 [Example 39, 8-(2,4-dichlorophenyl)-2-{[4-(4-methylpiperazin-1-yl)phenyl]amino}-6-[2-(trifluoromethyl)phenyl]pyrimido[4,5-d]pyridazin-5(6H)-one]	250 nM
CN1CCN(c2ccc(Nc3ncc4c(=O)n(-c5ccccc5Cl)nc(-c5ccccc5F)c4n3)cc2)CC1 [Example 40, 6-(2-chlorophenyl)-8-(2-fluorophenyl)-2-{[4-(4-methylpiperazin-1-yl)phenyl]amino}pyrimido[4,5-d]pyridazin-5(6H)-one]	1 nM
COc1ccccc1-n1nc(-c2ccc(Cl)cc2Cl)c2nc(Nc3ccc(N4CCN(C)CC4)cc3)ncc2c1=O [Example 43, 8-(2,4-dichlorophenyl)-6-(2-methoxyphenyl)-2-{[4-(4-methylpiperazin-1-yl)phenyl]amino}pyrimido[4,5-d]pyridazin-5(6H)-one]	260 nM
CN1CCN(c2ccc(Nc3ncc4c(=O)n(-c5c(Cl)cccc5Cl)nc(-c5ccccc5F)c4n3)cc2)CC1 [Example 45, 6-(2,6-dichlorophenyl)-8-(2-fluorophenyl)-2-{[4-(4-methylpiperazin-1-yl)phenyl]amino}pyrimido[4,5-d]pyridazin-5(6H)-one]	1 nM
Cc1ccccc1-n1nc(C2CCCC2)c2nc(Nc3ccc(N4CCN(C)CC4)cc3)ncc2c1=O [Example 49, 8-cyclopentyl-6-(2-methylphenyl)-2-{[4-(4-methylpiperazin-1-yl)phenyl]amino}pyrimido[4,5-d]pyridazin-5(6H)-one]	9 nM
Cc1cccc(-c2nn(-c3ccccc3)c(=O)c3cnc(Nc4ccc(N5CCN(C)CC5)cc4)nc23)c1 [Example 50, 8-(3-methylphenyl)-2-{[4-(4-methylpiperazin-1-yl)phenyl]amino}-6-phenylpyrimido[4,5-d]pyridazin-5(6H)-one]	5 nM
Cc1cccc(-c2nn(-c3ccccc3Cl)c(=O)c3cnc(Nc4ccc(N5CCN(C)CC5)cc4)nc23)c1 [Example 51, 6-(2-chlorophenyl)-8-(3-methylphenyl)-2-{[4-(4-methylpiperazin-1-yl)phenyl]amino}pyrimido[4,5-d]pyridazin-5(6H)-one]	0.4 nM
Cc1cccc(-c2nn(-c3ccccc3C)c(=O)c3cnc(Nc4ccc(N5CCN(C)CC5)cc4)nc23)c1 [Example 52, 6-(2-methylphenyl)-8-(3-methylphenyl)-2-{[4-(4-methylpiperazin-1-yl)phenyl]amino}pyrimido[4,5-d]pyridazin-5(6H)-one]	1 nM
CN1Cc2cc(Nc3ncc4c(=O)n(-c5ccccc5Cl)nc(-c5ccccc5)c4n3)ccc2C2(CC2)C1 [Example 53, 6-(2-chlorophenyl)-2-[(2′-methyl-2′,3′-dihydro-1′H-spiro[cyclopropane-1,4′-isoquinolin]-7′-yl)amino]-8-phenylpyrimido[4,5-d]pyridazin-5(6H)-one]	0.1 nM
CN1CCN(c2ccc(Nc3ncc4c(=O)n(-c5cccc(Cl)c5)nc(C5CCCC5)c4n3)cc2)CC1 [Example 56, 6-(3-chlorophenyl)-8-cyclopentyl-2-{[4-(4-methylpiperazin-1-yl)phenyl]amino}pyrimido[4,5-d]pyridazin-5(6H)-one]	63 nM
COc1ccccc1-n1nc(C2CCCC2)c2nc(Nc3ccc(N4CCN(C)CC4)cc3)ncc2c1=O [Example 57, 8-cyclopentyl-6-(2-methoxyphenyl)-2-{[4-(4-methylpiperazin-1-yl)phenyl]amino}pyrimido[4,5-d]pyridazin-5(6H)-one]	7 nM
COc1cccc(-c2nn(-c3ccccc3)c(=O)c3cnc(Nc4ccc(N5CCN(C)CC5)cc4)nc23)c1 [Example 58, 8-(3-methoxyphenyl)-2-{[4-(4-methylpiperazin-1-yl)phenyl]amino}-6-phenylpyrimido[4,5-d]pyridazin-5(6H)-one]	2 nM
CN1CCN(c2ccc(Nc3ncc4c(=O)n(-c5ccccc5)nc(-c5ccc(-c6ncccn6)cc5)c4n3)cc2)CC1 [Example 59, 2-{[4-(4-methylpiperazin-1-yl)phenyl]amino}-6-phenyl-8-[4-(pyrimidin-2-yl)phenyl]pyrimido[4,5-d]pyridazin-5(6H)-one]	3 nM
CN1CCN(c2ccc(Nc3ncc4c(=O)n(-c5ccccc5Cl)nc(-c5ccccn5)c4n3)cc2)CC1 [Example 60, 6-(2-chlorophenyl)-2-{[4-(4-methylpiperazin-1-yl)phenyl]amino}-8-(pyridin-2-yl)pyrimido[4,5-d]pyridazin-5(6H)-one]	1 nM
CN1CCN(c2ccc(Nc3ncc4c(=O)n(-c5ccccc5Cl)nc(-c5ccc(-c6ncccn6)cc5)c4n3)cc2)CC1 [Example 61, 6-(2-chlorophenyl)-2-{[4-(4-methylpiperazin-1-yl)phenyl]amino}-8-[4-(pyrimidin-2-yl)phenyl]pyrimido[4,5-d]pyridazin-5(6H)-one]	< 1 nM
Cc1ccccc1-n1nc(-c2ccc(-c3ncccn3)cc2)c2nc(Nc3ccc(N4CCN(C)CC4)cc3)ncc2c1=O [Example 64, 6-(2-methylphenyl)-2-{[4-(4-methylpiperazin-1-yl)phenyl]amino}-8-[4-(pyrimidin-2-yl)phenyl]pyrimido[4,5-d]pyridazin-5(6H)-one]	0.3 nM

The next lines start with the values.

Ki	Compound
18 nM	C=CCn1nc(-c2ccccc2F)c2nc(Nc3ccc(N4CCN(C)CC4)cc3)ncc2c1=O [Example 35, 6-allyl-8-(2-fluorophenyl)-2-{[4-(4-methylpiperazin-1-yl)phenyl]amino}pyrimido[4,5-d]pyridazin-5(6H)-one]
3 nM	Cc1ccccc1-n1nc(-c2ccccc2F)c2nc(Nc3ccc(N4CCN(C)CC4)cc3)ncc2c1=O [Example 36, 8-(2-fluorophenyl)-6-(2-methylphenyl)-2-{[4-(4-methylpiperazin-1-yl)phenyl]amino}pyrimido[4,5-d]pyridazin-5(6H)-one]
38 nM	Cc1ccccc1-n1nc(-c2ccc(Cl)cc2Cl)c2nc(Nc3ccc(N4CCN(C)CC4)cc3)ncc2c1=O [Example 41, 8-(2,4-dichlorophenyl)-6-(2-methylphenyl)-2-{[4-(4-methylpiperazin-1-yl)phenyl]amino}pyrimido[4,5-d]pyridazin-5(6H)-one]
400 nM	CN1CCN(c2ccc(Nc3ncc4c(=O)n(-c5ccccc5)nc(-c5ccc(Cl)cc5Cl)c4n3)cc2)CC1 [Example 42, 8-(2,4-dichlorophenyl)-2-{[4-(4-methylpiperazin-1-yl)phenyl]amino}-6-phenylpyrimido[4,5-d]pyridazin-5(6H)-one]
520 nM	CN1CCN(c2ccc(Nc3ncc4c(=O)n(-c5cccc(Cl)c5)nc(-c5ccc(Cl)cc5Cl)c4n3)cc2)CC1 [Example 44, 6-(3-chlorophenyl)-8-(2,4-dichlorophenyl)-2-{[4-(4-methylpiperazin-1-yl)phenyl]amino}pyrimido[4,5-d]pyridazin-5(6H)-one]
0.3 nM	CN1CCN(c2ccc(Nc3ncc4c(=O)n(-c5c(Cl)cccc5Cl)nc(-c5ccccc5)c4n3)cc2)CC1 [Example 46, 6-(2,6-dichlorophenyl)-2-{[4-(4-methylpiperazin-1-yl)phenyl]amino}-8-phenylpyrimido[4,5-d]pyridazin-5(6H)-one]
240 nM	C=CCn1nc(-c2ccc(Cl)cc2Cl)c2nc(Nc3ccc(N4CCN(C)CC4)cc3)ncc2c1=O [Example 47, 6-allyl-8-(2,4-dichlorophenyl)-2-{[4-(4-methylpiperazin-1-yl)phenyl]amino}pyrimido[4,5-d]pyridazin-5(6H)-one]
2 nM	CN1CCN(c2ccc(Nc3ncc4c(=O)n(-c5ccccc5Cl)nc(C5CCCC5)c4n3)cc2)CC1 [Example 55, 6-(2-chlorophenyl)-8-cyclopentyl-2-{[4-(4-methylpiperazin-1-yl)phenyl]amino}pyrimido[4,5-d]pyridazin-5(6H)-one]
11 nM	C=CCn1nc(-c2ccc(-c3ncccn3)cc2)c2nc(Nc3ccc(N4CCN(C)CC4)cc3)ncc2c1=O [Example 62, 6-allyl-2-{[4-(4-methylpiperazin-1-yl)phenyl]amino}-8-[4-(pyrimidin-2-yl)phenyl]pyrimido[4,5-d]pyridazin-5(6H)-one]
5 nM	C=CCn1nc(-c2cccc(OC)c2)c2nc(Nc3ccc(N4CCN(C)CC4)cc3)ncc2c1=O [Example 63, 6-allyl-8-(3-methoxyphenyl)-2-{[4-(4-methylpiperazin-1-yl)phenyl]amino}pyrimido[4,5-d]pyridazin-5(6H)-one]
